The results in this text go back to ChEMBL document CHEMBL4673346, “Discovery of a benzimidazole series as the first highly potent and selective ACSL1 inhibitors” (Bioorg Med Chem Lett, 2021).

Each structure is given as a SMILES string. In brackets after ≈: the same amount, converted by molar mass.

Data set [1] concerns Mus musculus. The data set is described as follows: In vivo inhibition of ACSL1 in mouse assessed as reduction in acyl-coA production in liver administered orally using palmitoleic acid as substrate and measured after 17 hrs. The following applies: dose 0.3-1 mg/kg. It counts as functional, organism-based.
In data set [2] the test system is Mus musculus. The data set is described as follows: In vivo inhibition of ACSL1 in mouse assessed as reduction in acyl-coA production in liver administered orally using oleic acid as substrate and measured after 17 hrs. The format is functional, organism-based.
Data set [3] relates to Mus musculus. The data set can be described thus: In vivo inhibition of ACSL1 in mouse assessed as reduction in acyl-coA production in liver administered orally using palmitic acid as substrate and measured after 17 hrs. It counts as functional, organism-based. The note with it: dose 0.3-1 mg/kg.
Data set [4] can be described thus: Tmax in rat at 1 mg/kg, po. It counts as ADME, organism-based. The note with it: in vivo.
Data set [5] is described as follows: Cmax in rat at 1 mg/kg, po. The format is ADME, organism-based. The note with it: in vivo. Also noted: route oral, dose 1 mg/kg.
Data set [6] is described as follows: AUC in rat at 1 mg/kg, po. It counts as ADME, organism-based. Also noted: dose 1 mg/kg. The note with it: in vivo.
Data set [7] can be described thus: Half life in rat at 0.5 mg/kg, iv. It counts as ADME, organism-based. The following applies: in vivo.
A short description of data set [8]: Volume of distribution at steady state in rat at 0.5 mg/kg, iv. The format is ADME, organism-based. The note with it: in vivo, read-out: Vdss.
A short description of data set [9]: Total clearance in rat at 0.5 mg/kg, iv. The note with it: in vivo. The format is ADME, organism-based.
Data set [10] in a line: AUC in rat at 0.5 mg/kg, iv. It counts as ADME, organism-based. Also noted: dose 0.5 mg/kg. The note with it: in vivo.
The target of another data set is Cytochrome P450 2D6 (Homo sapiens, UniProt P10635). The data set is described as follows: Inhibition of CYP2D6 (unknown origin). It counts as ADME.
Chain of Cytochrome P450 2D6 (P10635 whole entry): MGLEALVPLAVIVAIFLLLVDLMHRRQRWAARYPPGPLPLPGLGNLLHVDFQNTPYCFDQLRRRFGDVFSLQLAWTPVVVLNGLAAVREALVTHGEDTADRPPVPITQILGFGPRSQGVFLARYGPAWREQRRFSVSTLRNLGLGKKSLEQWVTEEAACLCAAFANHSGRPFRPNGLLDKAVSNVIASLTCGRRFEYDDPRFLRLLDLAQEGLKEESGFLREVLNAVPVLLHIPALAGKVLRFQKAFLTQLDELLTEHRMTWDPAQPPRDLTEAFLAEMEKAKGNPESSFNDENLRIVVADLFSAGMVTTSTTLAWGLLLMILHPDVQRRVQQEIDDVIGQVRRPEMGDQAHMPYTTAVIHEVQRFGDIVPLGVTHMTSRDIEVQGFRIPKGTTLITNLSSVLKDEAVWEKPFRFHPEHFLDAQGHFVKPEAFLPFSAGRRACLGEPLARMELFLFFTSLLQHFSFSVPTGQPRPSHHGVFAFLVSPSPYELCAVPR
A further data set concerns the target Cytochrome P450 3A4 (Homo sapiens, UniProt P08684). The data set can be described thus: Inhibition of CYP3A4 (unknown origin). It counts as ADME.
Data set [11] is described as follows: Fraction unbound in rat plasma. It counts as ADME, cell-free.
The next data set concerns the target Cytochrome P450 2C19 (Homo sapiens, UniProt P33261). The data set can be described thus: Inhibition of CYP2C19 (unknown origin). The format is ADME.
For a further data set, the target named is Cytochrome P450 2C9 (Homo sapiens, UniProt P11712). The data set can be described thus: Inhibition of CYP2C9 (unknown origin). It counts as ADME.
Chain of Cytochrome P450 2C9 (P11712 whole entry): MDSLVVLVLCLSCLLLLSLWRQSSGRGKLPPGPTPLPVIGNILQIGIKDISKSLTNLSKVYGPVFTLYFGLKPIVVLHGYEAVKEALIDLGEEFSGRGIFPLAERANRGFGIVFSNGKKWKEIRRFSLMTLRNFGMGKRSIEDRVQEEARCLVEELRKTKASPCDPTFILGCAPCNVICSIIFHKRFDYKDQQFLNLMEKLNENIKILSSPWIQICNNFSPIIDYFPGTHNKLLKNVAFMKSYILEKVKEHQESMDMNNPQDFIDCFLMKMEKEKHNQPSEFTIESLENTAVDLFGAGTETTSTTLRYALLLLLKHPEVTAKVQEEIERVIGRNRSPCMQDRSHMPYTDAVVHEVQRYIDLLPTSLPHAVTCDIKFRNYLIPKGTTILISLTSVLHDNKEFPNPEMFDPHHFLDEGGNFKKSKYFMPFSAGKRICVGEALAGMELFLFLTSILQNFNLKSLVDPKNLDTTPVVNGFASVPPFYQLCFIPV
Data set [12] can be described thus: Solubility of compound in pH 6.8 with TCA. The format is physicochemical.
Another data set concerns the target T1, Cytochrome P450 1A2 (Homo sapiens, UniProt P05177).
T1 sequence (P05177 whole entry): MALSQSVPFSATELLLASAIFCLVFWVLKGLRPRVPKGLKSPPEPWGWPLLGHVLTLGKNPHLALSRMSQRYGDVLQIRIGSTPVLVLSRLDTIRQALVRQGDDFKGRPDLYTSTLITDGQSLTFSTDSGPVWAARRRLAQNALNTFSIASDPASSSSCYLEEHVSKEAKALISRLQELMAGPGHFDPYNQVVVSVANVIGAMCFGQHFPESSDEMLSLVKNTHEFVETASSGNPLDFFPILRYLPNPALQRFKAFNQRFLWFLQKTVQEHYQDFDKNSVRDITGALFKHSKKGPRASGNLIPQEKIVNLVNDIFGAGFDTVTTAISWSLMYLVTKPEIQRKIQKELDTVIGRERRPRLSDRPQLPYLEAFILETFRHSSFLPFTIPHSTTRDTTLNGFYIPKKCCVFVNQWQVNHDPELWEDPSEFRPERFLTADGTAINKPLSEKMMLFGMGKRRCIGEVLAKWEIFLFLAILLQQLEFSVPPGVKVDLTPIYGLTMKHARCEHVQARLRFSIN
The data set is described as follows: Inhibition of CYP1A2 (unknown origin). It counts as ADME.

Data set [13] is described as follows: Solubility of compound in pH 1.2. It counts as physicochemical. The note with it: buffer.
Data set [14] is described as follows: Solubility of compound in pH 6.8. The format is physicochemical. The note with it: buffer.
Data set [15] is described as follows: Metabolic stability in mouse liver microsomes assessed as compound remaining after 30 mins. The format is ADME, Microsome. The note with it: read-out: Stabilty. A general note: Liver microsomes are a subcellular fraction often used to study metabolism.
Data set [16] in a line: Metabolic stability in human liver microsomes assessed as compound remaining after 30 mins. The format is ADME, Microsome. The note with it: read-out: Stabilty.
Data set [17] concerns the target T2, Long-chain-fatty-acid--CoA ligase 6 (Homo sapiens, UniProt Q9UKU0).
T2 sequence (Q9UKU0 whole entry): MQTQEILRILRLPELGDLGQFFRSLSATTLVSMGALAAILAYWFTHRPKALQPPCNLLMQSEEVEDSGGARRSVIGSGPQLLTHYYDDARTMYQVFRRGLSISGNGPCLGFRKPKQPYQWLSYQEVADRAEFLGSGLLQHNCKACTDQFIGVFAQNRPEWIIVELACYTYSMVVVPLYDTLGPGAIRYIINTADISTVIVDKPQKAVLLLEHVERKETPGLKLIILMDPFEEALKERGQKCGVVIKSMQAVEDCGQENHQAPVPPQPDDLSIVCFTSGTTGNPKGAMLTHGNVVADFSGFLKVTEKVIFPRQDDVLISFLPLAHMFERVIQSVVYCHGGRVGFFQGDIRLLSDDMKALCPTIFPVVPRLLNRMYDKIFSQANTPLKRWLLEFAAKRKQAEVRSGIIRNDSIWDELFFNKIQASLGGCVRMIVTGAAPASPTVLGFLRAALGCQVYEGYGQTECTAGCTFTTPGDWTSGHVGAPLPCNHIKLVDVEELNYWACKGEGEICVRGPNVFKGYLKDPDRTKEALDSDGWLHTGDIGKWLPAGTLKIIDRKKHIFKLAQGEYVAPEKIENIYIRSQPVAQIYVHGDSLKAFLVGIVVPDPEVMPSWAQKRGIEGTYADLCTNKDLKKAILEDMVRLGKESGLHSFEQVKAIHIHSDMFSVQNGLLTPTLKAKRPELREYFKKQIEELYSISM
The data set is described as follows: Inhibition of recombinant human ACSL6 assessed as reduction in […] prodution incubated for 60 mins in presence of Coenzyme A, ATP and MgCl2 by MALDI-TOF MS analysis.

Data set [18] concerns the target T3, Long-chain-fatty-acid--CoA ligase 5 (Homo sapiens, UniProt Q9ULC5).
T3 sequence (Q9ULC5 whole entry): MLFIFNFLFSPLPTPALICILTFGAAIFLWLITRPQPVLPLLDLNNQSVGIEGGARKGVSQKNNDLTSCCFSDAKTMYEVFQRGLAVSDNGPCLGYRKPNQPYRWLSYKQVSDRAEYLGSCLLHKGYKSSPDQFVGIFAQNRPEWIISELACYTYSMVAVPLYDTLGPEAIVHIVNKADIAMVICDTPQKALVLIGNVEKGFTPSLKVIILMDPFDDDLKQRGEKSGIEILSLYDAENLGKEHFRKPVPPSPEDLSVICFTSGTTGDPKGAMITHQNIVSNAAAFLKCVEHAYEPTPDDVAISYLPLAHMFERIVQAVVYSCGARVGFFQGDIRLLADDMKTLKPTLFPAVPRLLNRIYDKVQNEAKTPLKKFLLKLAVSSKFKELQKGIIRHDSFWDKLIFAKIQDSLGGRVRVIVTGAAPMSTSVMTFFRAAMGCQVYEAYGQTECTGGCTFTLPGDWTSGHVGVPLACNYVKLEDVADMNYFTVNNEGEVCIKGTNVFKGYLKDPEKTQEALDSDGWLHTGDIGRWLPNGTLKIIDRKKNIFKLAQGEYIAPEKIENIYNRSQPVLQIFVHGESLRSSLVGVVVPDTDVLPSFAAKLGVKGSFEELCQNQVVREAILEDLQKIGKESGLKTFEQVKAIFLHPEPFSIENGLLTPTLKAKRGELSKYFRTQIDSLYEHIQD
The data set can be described thus: Inhibition of recombinant human ACSL5 assessed as reduction in […] prodution incubated for 90 mins in presence of Coenzyme A, ATP and MgCl2 by MALDI-TOF MS analysis.

Chain of Cytochrome P450 3A4 (P08684 whole entry): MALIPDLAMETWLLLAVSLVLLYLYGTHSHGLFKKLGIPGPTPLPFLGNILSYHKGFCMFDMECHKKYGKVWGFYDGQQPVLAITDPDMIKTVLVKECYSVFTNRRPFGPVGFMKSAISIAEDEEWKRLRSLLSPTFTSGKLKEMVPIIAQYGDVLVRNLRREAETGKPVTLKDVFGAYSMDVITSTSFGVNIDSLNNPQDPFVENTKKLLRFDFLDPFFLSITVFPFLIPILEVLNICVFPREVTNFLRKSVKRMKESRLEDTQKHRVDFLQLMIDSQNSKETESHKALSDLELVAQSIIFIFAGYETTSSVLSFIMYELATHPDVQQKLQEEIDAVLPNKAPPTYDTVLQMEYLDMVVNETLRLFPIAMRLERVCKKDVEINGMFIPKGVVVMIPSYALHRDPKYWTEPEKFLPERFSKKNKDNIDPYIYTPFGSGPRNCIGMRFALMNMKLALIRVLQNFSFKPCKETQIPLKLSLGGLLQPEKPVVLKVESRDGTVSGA
Chain of Cytochrome P450 2C19 (P33261 whole entry): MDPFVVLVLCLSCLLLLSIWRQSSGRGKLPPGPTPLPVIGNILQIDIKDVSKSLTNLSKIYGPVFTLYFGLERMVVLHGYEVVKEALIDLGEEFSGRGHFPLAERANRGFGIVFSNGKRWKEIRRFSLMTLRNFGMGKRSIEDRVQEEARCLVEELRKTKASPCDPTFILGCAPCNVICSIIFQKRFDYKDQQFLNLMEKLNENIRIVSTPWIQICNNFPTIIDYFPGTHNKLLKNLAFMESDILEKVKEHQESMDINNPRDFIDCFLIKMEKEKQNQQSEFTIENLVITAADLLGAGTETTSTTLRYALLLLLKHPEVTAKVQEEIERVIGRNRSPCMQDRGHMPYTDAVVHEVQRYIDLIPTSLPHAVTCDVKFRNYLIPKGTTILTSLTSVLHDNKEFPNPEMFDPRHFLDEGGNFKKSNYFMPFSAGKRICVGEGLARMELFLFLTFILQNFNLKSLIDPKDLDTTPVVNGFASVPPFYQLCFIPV

As to `Cc1cccc(Cc2nc3cc(O[C@H]4CC[C@@H](C(=O)O)CC4)ccc3n2C)c1`, the inhibition result in the data set on Mus musculus [1], in the data set on Mus musculus [2] and with Mus musculus [3] was “Dose-dependent effect” in each case. In addition, the time of peak concentration (Tmax) in [4] amounted to 2.5 h. Further, in data set [5], the Cmax is 1110 ng/mL. For the same compound, the area under the curve (AUC) in [6] is 11800 ng·h/mL; in [10], 4970 ng·h/mL. Moreover, the half-life in data set [7] was 168 min. Moreover, in data set [8], the Vd is 0.38 L/kg. In addition, the clearance in data set [9] amounted to 1.75 mL/min/kg. In addition, the half-maximal inhibitory concentration (IC50) against Cytochrome P450 2D6 was greater than 20 µM; against Cytochrome P450 3A4, greater than 20 µM; on Cytochrome P450 2C19, greater than 20 µM; on Cytochrome P450 2C9, greater than 20 µM; at Cytochrome P450 1A2, greater than 20 µM; in [17] it was greater than 200 µM. For the same compound, the IC50 in [18] was greater than 200 µM. This compound gave a fraction unbound in data set [11] of 0.017. The results for the solubility in data set [12], in data set [13] and in [14] were 24 µg/mL (≈ 63.4 µM), 307 µg/mL (≈ 811 µM) and 8.6 µg/mL (≈ 22.7 µM), respectively. Further, the remaining at 0.5 h was found to be 99% in data set [15] and 96% in [16].

One may read the Tmax as the time from dosing to the highest level. What is called Cmax is the maximum level reached in the sampled fluid or tissue. What is called AUC is the area under the concentration-time curve, a measure of exposure. A low value points to low exposure. As usually defined, the half-life is the time needed for the level to fall by half in the phase considered. Usually clearance stands for a measure of how efficiently the substance is removed, as volume per time. As a reminder, the IC50 is the concentration needed to halve the response being measured. In general, fraction unbound refers to free concentration divided by total concentration. Higher therefore signals much free substance. The term solubility denotes how much of the substance goes into solution per volume.
